Laboratory results reported in patent publication US10722520B2, “Heterocyclic compounds and their use in preventing or treating bacterial infections” (MUTABILIS, priority 2016, dated 2020).

Assays:
[1] = test system: K. pneumoniae 6299; assay: MIC of compound alone, broth microdilution; format: cell-based; details: Klebsiella pneumoniae, 6299, read-out: MIC compounds of the invention alone
Procedure, shortened: (§1)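 Log-phase bacteria were diluted to a final 5×10^5 cfu/mL in cation-adjusted Mueller-Hinton broth and incubated 16-20 h at 35° C in ambient air. MIC was taken as the lowest concentration preventing growth, judged visually.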

[2] = test system: P. aeruginosa CIP107051; assay: MIC of compound alone, broth microdilution; format: cell-based; details: Pseudomonas aeruginosa, CIP107051, read-out: MIC compounds of the invention alone
Procedure, shortened: as §1

[3] = test system: E. cloacae 260508; assay: MIC of ceftazidime (CAZ) at fixed concentration of compound (synergy), broth microdilution; format: cell-based; details: MIC of ceftazidime with compound fixed at 4 μg/mL; strain 260508 (E. cloacae)
Procedure, shortened: as §1

[4] = test system: E. cloacae P99; assay: as above; format: cell-based; details: MIC of ceftazidime with compound fixed at 4 μg/mL; strain P99 (E. cloacae)
Procedure, shortened: as §1

[5] = test system: E. cloacae UFR51; assay: as above; format: cell-based; details: MIC of ceftazidime with compound fixed at 4 μg/mL; strain UFR51 (E. cloacae)
Procedure, shortened: as §1

[6] = test system: E. cloacae UFR70; assay: as above; format: cell-based; details: MIC of ceftazidime with compound fixed at 4 μg/mL; strain UFR70 (E. cloacae)
Procedure, shortened: as §1

[7] = test system: E. cloacae UFR85; assay: as above; format: cell-based; details: MIC of ceftazidime with compound fixed at 4 μg/mL; strain UFR85 (E. cloacae)
Procedure, shortened: as §1

[8] = test system: E. coli 131119; assay: as above; format: cell-based; details: MIC of ceftazidime with compound fixed at 4 μg/mL; strain 131119 (E. coli)
Procedure, shortened: as §1

[9] = test system: E. coli 190317; assay: as above; format: cell-based; details: MIC of ceftazidime with compound fixed at 4 μg/mL; strain 190317 (E. coli)
Procedure, shortened: as §1

[10] = test system: E. coli RGN238; assay: as above; format: cell-based; details: MIC of ceftazidime with compound fixed at 4 μg/mL; strain RGN238 (E. coli)
Procedure, shortened: as §1

[11] = test system: E. coli UFR18; assay: as above; format: cell-based; details: MIC of ceftazidime with compound fixed at 4 μg/mL; strain UFR18 (E. coli)
Procedure, shortened: as §1

[12] = test system: E. coli UFR32; assay: as above; format: cell-based; details: MIC of ceftazidime with compound fixed at 4 μg/mL; strain UFR32 (E. coli)
Procedure, shortened: as §1

[13] = test system: E. coli UFR39; assay: as above; format: cell-based; details: MIC of ceftazidime with compound fixed at 4 μg/mL; strain UFR39 (E. coli)
Procedure, shortened: as §1

[14] = test system: E. coli UFR41; assay: as above; format: cell-based; details: MIC of ceftazidime with compound fixed at 4 μg/mL; strain UFR41 (E. coli)
Procedure, shortened: as §1

[15] = test system: E. coli UFR61O; assay: as above; format: cell-based; details: MIC of ceftazidime with compound fixed at 4 μg/mL; strain UFR61O (E. coli)
Procedure, shortened: as §1

[16] = test system: E. coli UFR74; assay: as above; format: cell-based; details: MIC of ceftazidime with compound fixed at 4 μg/mL; strain UFR74 (E. coli)
Procedure, shortened: as §1

[17] = test system: K. oxytoca UFR21; assay: as above; format: cell-based; details: MIC of ceftazidime with compound fixed at 4 μg/mL; strain UFR21 (K. oxytoca)
Procedure, shortened: as §1

[18] = test system: K. pneumoniae 160143; assay: as above; format: cell-based; details: MIC of ceftazidime with compound fixed at 4 μg/mL; strain 160143 (K. pneumoniae)
Procedure, shortened: as §1

[19] = test system: K. pneumoniae 200047; assay: as above; format: cell-based; details: MIC of ceftazidime with compound fixed at 4 μg/mL; strain 200047 (K. pneumoniae)
Procedure, shortened: as §1

[20] = test system: K. pneumoniae 6299; assay: as above; format: cell-based; details: MIC of ceftazidime with compound fixed at 4 μg/mL; strain 6299 (K. pneumoniae)
Procedure, shortened: as §1

[21] = test system: K. pneumoniae BAA-1898; assay: as above; format: cell-based; details: MIC of ceftazidime with compound fixed at 4 μg/mL; strain BAA-1898 (K. pneumoniae)
Procedure, shortened: as §1

[22] = test system: K. pneumoniae UFR24; assay: as above; format: cell-based; details: MIC of ceftazidime with compound fixed at 4 μg/mL; strain UFR24 (K. pneumoniae)
Procedure, shortened: as §1

[23] = test system: K. pneumoniae UFR68; assay: as above; format: cell-based; details: MIC of ceftazidime with compound fixed at 4 μg/mL; strain UFR68 (K. pneumoniae)
Procedure, shortened: as §1

[24] = test system: K. pneumoniae UFR77; assay: as above; format: cell-based; details: MIC of ceftazidime with compound fixed at 4 μg/mL; strain UFR77 (K. pneumoniae)
Procedure, shortened: as §1

[25] = test system: P. aeruginosa CIP107051; assay: as above; format: cell-based; details: MIC of ceftazidime with compound fixed at 4 μg/mL; strain CIP107051 (P. aeruginosa)
Procedure, shortened: as §1

[26] = target: CMY-37 (Citrobacter freundii, UniProt P05193); details: read-out: IC50 β-lactamase CMY-37; class (C); nitrocefin 200 μM, 30-min pre-incubation, enzyme 0.2 nM
Sequence of CMY-37 (P05193 21-381 limits assumed): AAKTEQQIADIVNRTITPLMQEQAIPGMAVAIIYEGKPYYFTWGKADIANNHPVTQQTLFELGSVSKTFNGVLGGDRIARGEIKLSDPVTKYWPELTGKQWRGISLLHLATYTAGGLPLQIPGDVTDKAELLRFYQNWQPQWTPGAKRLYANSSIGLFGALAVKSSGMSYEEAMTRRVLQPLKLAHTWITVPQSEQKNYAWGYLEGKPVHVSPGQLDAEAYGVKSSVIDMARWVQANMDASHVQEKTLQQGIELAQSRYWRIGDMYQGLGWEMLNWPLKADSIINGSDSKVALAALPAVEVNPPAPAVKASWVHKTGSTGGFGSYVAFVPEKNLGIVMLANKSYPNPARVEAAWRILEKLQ

`O=C1N2CC(n3cccn3)=CC(C2)N1OC(F)(F)C(=O)[O-].[Li+]` (centres unmarked) [Example 4, lithium difluoro-(7-oxo-3-pyrazol-1-yl-1,6-diaza-bicyclo[3.2.1]oct-3-en-6-yloxy)-acetate] was tested, and the MIC [1] was 16 µg/mL, the MIC [2] was > 32 µg/mL and the “MIC combination of CAZ and compounds of the invention at 4 μg/mL” value (“MIC combination” for short) [3] was ≤0.25. The “MIC combination” value [4] was ≤0.25, the “MIC combination” value [5] was <0.25 and the “MIC combination” value [6] was <0.25. For the same compound, the “MIC combination” value [7] was 1, the “MIC combination” value [8] was <0.25 and the “MIC combination” value [9] was <0.25. The “MIC combination” value [10] was <0.25, the “MIC combination” value [11] was <0.25 and the “MIC combination” value [12] was <0.25. The “MIC combination” value [13] was <0.25, the “MIC combination” value [14] was <0.25 and the “MIC combination” value [15] was <0.25. The “MIC combination” value [16] was <0.25, the “MIC combination” value [17] was 4 and the “MIC combination” value [18] was <0.25. The “MIC combination” value [19] was <0.25, the “MIC combination” value [20] was ≤0.25 and the “MIC combination” value [21] was 0.5. For the same compound, the “MIC combination” value [22] was 0.5, the “MIC combination” value [23] was 4 and the “MIC combination” value [24] was <0.25. The “MIC combination” value [25] was 4 and the IC50 [26] was 150 nM.
